System: HO-1
Assay: HO-1 expression in HCT116 (qPCR, western blot)
Type: cell-based, human
Settings: HCT116, CTR, vitamin C 350 μM 3 hours as single intervention
Method: Cells were washed twice in ice-cold PBS and lysates were prepared in RIPA lysis buffer (50 mM Tris HCl pH 7.4, 150 mM NaCl, 1% NP-40, 0.25% deoxycholic acid, 1 mM EDTA) supplemented with protease and phosphatase inhibitors (protease inhibitor cocktail set III EDTA-free, Calbiochem, Cat. #: S39134; PhosStop, Roche), Samples were sonicated (bioruptor plus, diogenode) and centrifuged at 16.1 g for 30 minutes at 4° C. Tumor tissues were collected and snap frozen in liquid nitrogen immediately after mice were sacrificed, and stored in -80° C. until use. […] Protein concentrations were determined by BCA assay (Thermo Fisher Scientific, Cat. #: 23225). Proteins were diluted in 1× Laemmli sample buffer, boiled at 95° C. for 5 minutes and 30 μg of total proteins were separated by using SDS-PAGE and analyzed by western blotting by standard procedures. […] Membranes were incubated overnight at 4° C. with gentle shaking with the following primary antibodies: […] ADI-SPA894), FTH (1:1000, Cell Signaling, Cat. #: 3998), AMPK (1:1000, Cell Signaling, Cat. #: 2532), phospho-[…] […] Bands intensity was quantified with NIH Image J software (version 1.48v). […] Resulting cDNA (1/20 v/v) was analyzed by real-time polymerase reaction (qRT-PCR) using TaqMan MBG probes with FAM reporter dyes. […]

O=C1O[C@H]([C@@H](O)CO)C(O)=C1O [vitamin C, ascorbic acid]
HO-1 mRNA and protein level: significantly up-regulated HO-1 both at transcriptional and protein level

Reference: patent US20210352950A1 (priority 2019, published 2021)
